target: T1, GABA A receptor α5β3γ2 (Homo sapiens, UniProt P18507+P31644); experiment: [3H]flumazenil competition binding, human GABA A α5β3γ2; details: competition for [3H]flumazenil (0.5 nM) binding, HEK293 cells expressing human (transiently transfected) α5β3γ2; means of two determinations; read-out: Ki[nM] hα5
T1 construct: expressed in transfected cells; host or cells: HEK293 cells, transiently transfected; membranes prepared
Procedure: Membrane Preparation and Binding Assay
The affinity of compounds at GABA A receptor subtypes was measured by competition for [3H]flumazenil (85 Ci/mmol; Roche) binding to HEK293 cells expressing rat (stably transfected) or human (transiently transfected) receptors of composition
Cell pellets were suspended in Krebs-tris buffer (4.8 mM KCl, 1.2 mM CaCl2, 1.2 mM MgCl2, 120 mM NaCl, 15 mM Tris; pH 7.5; binding assay buffer), homogenized by polytron for ca. 20 sec on ice and centrifuged for 60 min at 4° C. (50000 g; Sorvall, rotor: SM24=20000 rpm). The cell pellets were resuspended in Krebs-tris buffer and homogenized by polytron for ca. 15 sec on ice. Protein was measured (Bradford method, Bio-Rad) and aliquots of 1 mL were prepared and stored at −80° C.
Assays were incubated to equilibrium for 1 hour at 4° C. and harvested onto GF/C uni-filters (Packard) by filtration using a Packard harvester and washing with ice-cold wash buffer (50 mM Tris; pH 7.5). After drying, filter-retained radioactivity was detected by liquid scintillation counting. Ki values were calculated using Excel-Fit (Microsoft) and are the means of two determinations.

Compound	Ki [nM]
COc1cc(NCCS(C)(=O)=O)c(F)cc1-c1nnc(-c2c(-c3ccccc3)noc2C)o1 [Example 127, {2-Fluoro-5-methoxy-4-[5-(5-methyl-3-phenyl-isoxazol-4-yl)-[1,3,4]oxadiazol-2-yl]-phenyl}-(2-methanesulfonyl-ethyl)-amine]	1.7
COc1cc(NCCN2CCNC2=O)c(F)cc1-c1nnc(-c2c(-c3ccccc3)noc2C)o1 [Example 133, 1-(2-{2-Fluoro-5-methoxy-4-[5-(5-methyl-3-phenyl-isoxazol-4-yl)-[1,3,4]oxadiazol-2-yl]-phenylamino}-ethyl)-imidazolidin-2-one]	12.8
COc1cc(F)ccc1-c1nnc(-c2c(-c3ccccc3)noc2C)o1 [Example 24, 2-(4-Fluoro-2-methoxy-phenyl)-5-(5-methyl-3-phenyl-isoxazol-4-yl)-[1,3,4]oxadiazole]	39.6
COc1ccc(-c2nnc(-c3c(-c4ccccc4)noc3C)o2)cc1 [Example 5, 2-(4-Methoxy-phenyl)-5-(5-methyl-3-phenyl-isoxazol-4-yl)-[1,3,4]oxadiazole]	31.1
COCCNc1ccc(-c2nnc(-c3c(-c4ccccc4)noc3C)o2)c(OC)c1 [Example 124, (2-Methoxy-ethyl)-{3-methoxy-4-[5-(5-methyl-3-phenyl-isoxazol-4-yl)-[1,3,4]oxadiazol-2-yl]-phenyl}-amine]	8.2
Cc1onc(-c2ccccc2)c1-c1nnc(-c2ccc(N3CCS(=O)(=O)CC3)cc2)o1 [Example 38, 4-{4-[5-(5-Methyl-3-phenyl-isoxazol-4-yl)-[1,3,4]oxadiazol-2-yl]-phenyl}-thiomorpholine 1,1-dioxide]	19.7
Cc1onc(-c2ccccc2)c1-c1nnc(-c2ccccc2OC(F)F)o1 [Example 42, 2-(2-Difluoromethoxy-phenyl)-5-(5-methyl-3-phenyl-isoxazol-4-yl)-[1,3,4]oxadiazole]	141
COc1cc(F)ccc1-c1nnc(-c2c(-c3ccccc3)noc2C(C)C)o1 [Example 61, 2-(4-Fluoro-2-methoxy-phenyl)-5-(5-isopropyl-3-phenyl-isoxazol-4-yl)-[1,3,4]oxadiazole]	17.7
COc1cc(NC(=O)c2ccsc2)ccc1-c1nnc(-c2c(-c3ccccc3)noc2C)o1 [Example 23, Thiophene-3-carboxylic acid-{3-methoxy-4-[5-(5-methyl-3-phenyl-isoxazol-4-yl)-[1,3,4]oxadiazol-2-yl]-phenyl}-amide]	18.3
Cc1ccccc1-c1nnc(-c2c(-c3ccccc3)noc2C)o1 [Example 2, 2-(5-Methyl-3-phenyl-isoxazol-4-yl)-5-o-tolyl-[1,3,4]oxadiazole]	234
COc1cc(N(C)C)ccc1-c1nnc(-c2c(-c3ccccc3)noc2C)o1 [Example 72, {3-Methoxy-4-[5-(5-methyl-3-phenyl-isoxazol-4-yl)-[1,3,4]oxadiazol-2-yl]-phenyl}-dimethyl-amine]	12
COc1ccc(-c2nnc(-c3c(-c4ccccc4)noc3C)o2)c(OC)c1 [Example 10, 2-(2,4-Dimethoxy-phenyl)-5-(5-methyl-3-phenyl-isoxazol-4-yl)-[1,3,4]oxadiazole]	31.7
Cc1onc(-c2ccccc2)c1-c1nnc(-c2ccc(-n3ccnc3C)cc2)o1 [Example 59, 2-[4-(2-Methyl-imidazol-1-yl)-phenyl]-5-(5-methyl-3-phenyl-isoxazol-4-yl)-[1,3,4]oxadiazole]	30.7
Cc1onc(-c2ccccc2)c1-c1nnc(-c2ccc(N)cc2)o1 [Example 35, 4-[5-(5-Methyl-3-phenyl-isoxazol-4-yl)-[1,3,4]oxadiazol-2-yl]-phenylamine]	31.2
Cc1onc(-c2ccccc2)c1-c1nnc(-c2ccccn2)o1 [Example 9, 2-[5-(5-Methyl-3-phenyl-isoxazol-4-yl)-[1,3,4]oxadiazol-2-yl]-pyridine]	286
COc1cc(N2CCOCC2)ccc1-c1nnc(-c2c(-c3ccccc3)noc2-n2cccn2)o1 [Example 113, 4-{3-Methoxy-4-[5-(3-phenyl-5-pyrazol-1-yl-isoxazol-4-yl)-[1,3,4]oxadiazol-2-yl]-phenyl}-morpholine]	7.4
COc1cc(N2CCOCC2)ccc1-c1nnc(-c2c(-c3ccc(C)cc3)noc2C)o1 [Example 104, 4-(3-Methoxy-4-{5-[5-methyl-3-(4-methyl-phenyl)-isoxazol-4-yl]-[1,3,4]oxadiazol-2-yl}-phenyl)-morpholine]	12.1
Cc1onc(-c2ccccc2)c1-c1nnc(-c2ccc(NCCO)nc2)o1 [Example 137, 2-{5-[5-(5-Methyl-3-phenyl-isoxazol-4-yl)-[1,3,4]oxadiazol-2-yl]-pyridin-2-ylamino}-ethanol]	24.5

Compound	Ki [nM]
Cc1onc(-c2ccccc2)c1-c1nnc(-c2ccc(S(C)(=O)=O)cc2)o1 [Example 30, 2-(4-Methanesulfonyl-phenyl)-5-(5-methyl-3-phenyl-isoxazol-4-yl)-[1,3,4]oxadiazole]	226
COc1cc(NCc2ccccn2)c(F)cc1-c1nnc(-c2c(-c3ccccc3)noc2C)o1 [Example 131, {2-Fluoro-5-methoxy-4-[5-(5-methyl-3-phenyl-isoxazol-4-yl)-[1,3,4]oxadiazol-2-yl]-phenyl}-pyridin-2-ylmethyl-amine]	21.2
Cc1onc(-c2ccccc2)c1-c1nnc(-c2cccc(F)c2)o1 [Example 45, 2-(3-Fluoro-phenyl)-5-(5-methyl-3-phenyl-isoxazol-4-yl)-[1,3,4]oxadiazole]	100
Cc1onc(-c2ccccc2)c1-c1nnc(-c2ccc3[nH]cnc3c2)o1 [Example 27, 5-[5-(5-Methyl-3-phenyl-isoxazol-4-yl)-[1,3,4]oxadiazol-2-yl]-1H-benzoimidazole]	22.1
Cc1onc(-c2ccccc2)c1-c1nnc(-c2ccnc(Cl)c2)o1 [Example 54, 2-Chloro-4-[5-(5-methyl-3-phenyl-isoxazol-4-yl)-[1,3,4]oxadiazol-2-yl]-pyridine]	88.4
COc1cc(N2CCOCC2)ccc1-c1nnc(-c2conc2-c2ccc(F)cc2)o1 [Example 98, 4-(4-{5-[3-(4-Fluoro-phenyl)-isoxazol-4-yl]-[1,3,4]oxadiazol-2-yl}-3-methoxy-phenyl)-morpholine]	49
COc1cccc(-c2nnc(-c3c(-c4ccccc4)noc3C)o2)c1 [Example 3, 2-(3-Methoxy-phenyl)-5-(5-methyl-3-phenyl-isoxazol-4-yl)-[1,3,4]oxadiazole]	391
CCNc1onc(-c2ccccc2)c1-c1nnc(-c2ccc(N3CCOCC3)cc2OC)o1 [Example 111, Ethyl-{4-[5-(2-methoxy-4-morpholin-4-yl-phenyl)-[1,3,4]oxadiazol-2-yl]-3-phenyl-isoxazol-5-yl}-amine]	4.9
CCC(=O)Nc1ccc(-c2nnc(-c3c(-c4ccccc4)noc3C)o2)c(OC)c1 [Example 90, N-{3-Methoxy-4-[5-(5-methyl-3-phenyl-isoxazol-4-yl)-[1,3,4]oxadiazol-2-yl]-phenyl}-propionamide]	4.8
COc1cc(NC2CCN(C)CC2)ccc1-c1nnc(-c2c(-c3ccccc3)noc2C)o1 [Example 65, {3-Methoxy-4-[5-(5-methyl-3-phenyl-isoxazol-4-yl)-[1,3,4]oxadiazol-2-yl]-phenyl}-(1-methyl-piperidin-4-yl)-amine]	15.3
CCOc1ccccc1-c1nnc(-c2c(-c3ccccc3)noc2C)o1 [Example 8, 2-(2-Ethoxy-phenyl)-5-(5-methyl-3-phenyl-isoxazol-4-yl)-[1,3,4]oxadiazole]	58.2
Cc1onc(-c2ccccc2)c1-c1nnc(-c2ccc(N)nc2)o1 [Example 48, 5-[5-(5-Methyl-3-phenyl-isoxazol-4-yl)-[1,3,4]oxadiazol-2-yl]-pyridin-2-ylamine]	38.9
COc1ccc(-c2nnc(-c3c(-c4ccccc4)noc3C)o2)c(Cl)n1 [Example 99, 2-Chloro-6-methoxy-3-[5-(5-methyl-3-phenyl-isoxazol-4-yl)-[1,3,4]oxadiazol-2-yl]-pyridine]	95.8
Cc1onc(-c2ccccc2)c1-c1nnc(-c2ccc(N3CC[S+]([O-])CC3)cc2)o1 [Example 39, 4-{4-[5-(5-Methyl-3-phenyl-isoxazol-4-yl)-[1,3,4]oxadiazol-2-yl]-phenyl}-thiomorpholine 1-oxide]	16.7
Cc1onc(-c2ccccc2)c1-c1nnc(-c2ccnc(N3CCOCC3)c2)o1 [Example 55, 4-{4-[5-(5-Methyl-3-phenyl-isoxazol-4-yl)-[1,3,4]oxadiazol-2-yl]-pyridin-2-yl}-morpholine]	324
Cc1onc(-c2ccccc2)c1-c1nnc(-c2ccncc2)o1 [Example 40, 4-[5-(5-Methyl-3-phenyl-isoxazol-4-yl)-[1,3,4]oxadiazol-2-yl]-pyridine]	179
COc1cc(N)ccc1-c1nnc(-c2c(-c3ccccc3)noc2C)o1 [Example 13, 3-Methoxy-4-[5-(5-methyl-3-phenyl-isoxazol-4-yl)-[1,3,4]oxadiazol-2-yl]-phenylamine]	7.5
COc1cc(NCC2CC2)ccc1-c1nnc(-c2c(-c3ccccc3)noc2CCC2CC2)o1 [Example 18, (4-{5-[5-(2-Cyclopropyl-ethyl)-3-phenyl-isoxazol-4-yl]-[1,3,4]oxadiazol-2-yl}-3-methoxy-phenyl)-cyclopropylmethyl-amine]	124

Source: patent publication US7956074B2, “Aryl-isoxazolo-4-yl-oxadiazole derivatives” (Hoffman-La Roche Inc., priority 2005, dated 2011)
